Measurements from patent publication US20240018147A1, “SALT OF COMPOUND FOR DEGRADING BTK, CRYSTAL FORM THEREOF, AND USE THEREOF IN MEDICINE” (HAISCO PHARMACEUTICALS PTE. LTD., priority 2020, published 2024).
≈ marks a conversion by molar mass, not a printed value.

Legend:
[1] = Crystal slurrying competition experiment of crystal forms; format: physicochemical; conditions: room temperature; for relative stability of crystal forms from competition experiments: conclusion in words
Method: 6.2. Competitive experiments of crystal forms I, II and III of compound 1 were performed at room temperature to investigate the stability of the crystal forms in isopropyl acetate and a water/acetonitrile (v/v=1:1) solvent, and Competitive experiments of the crystal forms I and II of compound 3 were performed at room temperature to investigate the stability of the crystal forms in an ethanol/water (v/v=1:1) solvent and an acetone/water (v/v=1:1) solvent.

[2] = Pharmacokinetic test of dogs; format: in vivo; conditions: Beagle dogs; for Having bioavailability or not / AUC(0-t): i.g. (10 mg/kg); for AUC(0-t): male, dog, po, plasma
Method: Experimental objective: in this experiment, a single dose of each test compound was administered to Beagle dogs intravenously and intragastrically, the concentrations of the test compounds in plasma of dogs were measured, and the pharmacokinetic characteristics and bioavailability of the test compounds in dogs were evaluated.
Experimental animal: male Beagle dogs (about 8-11 kg, […], 6 dogs/compound), purchased from Beijing Marshall Biotechnology Co. Ltd.
The animals were fasted but with water available for 14 to 18 hours one day before administration, and were fed 4 hours after administration.
Sampling: before and after administration, 1.0 ml of blood was taken from jugular veins, and placed in an EDTAK2 centrifuge tube. Centrifugation was carried out at 5000 rpm at 4° C. for 10 m, and the plasma was collected.
Time points for plasma collection in G1& G2 groups: 0, 5 min, 15 min, 30 mi 1 h, 2 h, 4 h, 6 h, 8 h, 10 h, […] and 24 h.
Before analysis and detection, all samples were stored at −80° C. The samples were detected by using HPLC-MS/MS.

[3] = Solubility in water at 25° C.; format: physicochemical
Method: 7. Solubility Data in Water at 25° C.

[4] = Chemical stability at high temperature (40° C.) and high humidity (RH 92.5%), purity by HPLC; format: physicochemical; conditions: for Purity by HPLC, 0 day: 0 day (initial); for chemical stability: 40° C. and RH 92.5%, purity by HPLC, conclusion in words; for Purity by HPLC, 92.5% RH 30 days: high humidity 92.5% RH; for Purity by HPLC, 40° C. 30 days: high temperature 40° C.
Method: Samples were taken and tested at high temperature (40° C.) and under high humidity (RH 92.5%) respectively. The purity (represented by a percentage) was detected by HPLC.
With regard to methods for preparing test solutions and conditions for detecting purity by HPLC, reference was made to Tables 13, 14 and 15.

[5] = Stability of crystal form of compound 1 and compound 3 (XRD); format: physicochemical; conditions: conclusion in words
Description: 6.1. Stability of crystal form of compound 1 and compound 3.

[6] = listed as Amorphous form of compound 1
[7] = listed as Crystal form III of compound 1

Structure (SMILES) | improvement of solubility as compared with compound 1 [3] | solubility [3] | Having bioavailability or not [2] | increase of oral exposure amount as compared with compound 1 [2] | AUC(0-t) [2] | chemical stability [4] | other results
Nc1ncnc2c1c(-c1ccc(Oc3ccccc3)cc1)nn2C1CCN(C2CN(C3CN(c4ccc5c(c4)C(=O)N(C4CCC(=O)NC4=O)C5=O)C3)C2)CC1.O=C(O)/C=C\C(=O)O.O=C(O)/C=C\C(=O)O (stereo not shown) |  |  |  |  |  |  | Experimental XRD result after crystal slurrying competition ([1]; acetone/water (v/v = 1:1), 3 days): Crystal form I; Experimental XRD result after crystal slurrying competition ([1]; ethanol/water (v/v = 1:1), 3 days): Crystal form I
Nc1ncnc2c1c(-c1ccc(Oc3ccccc3)cc1)nn2C1CCN(C2CN(C3CN(c4ccc5c(c4)C(=O)N(C4CCC(=O)NC4=O)C5=O)C3)C2)CC1 (stereo not shown) [5-[3-[3-[4-[4-amino-3-(4-phenoxyphenyl)pyrazolo[3,4-d]pyrimidin-1-yl]-1-piperidyl]azetidin-1-yl]azetidin-1-yl]-2-(2,6-dioxo-3-piperidyl)isoindoline-1,3-dione] |  |  |  |  |  |  | Experimental XRD result after crystal slurrying competition ([1]; isopropyl acetate, 2 days): Crystal form III; Experimental XRD result after crystal slurrying competition ([1]; water/acetonitrile (v/v = 1:1), 2 days): Crystal form III
Nc1ncnc2c1c(-c1ccc(Oc3ccccc3)cc1)nn2C1CCN(C2CN(C3CN(c4ccc5c(c4)C(=O)N(C4CCC(=O)NC4=O)C5=O)C3)C2)CC1 (stereo not shown) [Compound 1, 5-[3-[3-[4-[4-amino-3-(4-phenoxyphenyl)pyrazolo[3,4-d]pyrimidin-1-yl]-1-piperidyl]azetidin-1-yl]azetidin-1-yl]-2-(2,6-dioxo-3-piperidyl)isoindoline-1,3-dione] |  |  |  |  |  |  | oral bioavailability in dogs ([2]; intragastric vs intravenous, conclusion in words): a certain level of oral bioavailability; solubility in water ([3]; conclusion in words): a certain level of solubility
Nc1ncnc2c1c(-c1ccc(Oc3ccccc3)cc1)nn2C1CCN(C2CN(C3CN(c4ccc5c(c4)C(=O)N(C4CCC(=O)NC4=O)C5=O)C3)C2)CC1.O=C(O)C[C@H](O)C(=O)O [Compound 4, 5-[3-[3-[4-[4-amino-3-(4-phenoxyphenyl)pyrazolo[3,4-d]pyrimidin-1-yl]-1-piperidyl]azetidin-1-yl]azetidin-1-yl]-2-(2,6-dioxo-3-piperidyl)isoindoline-1,3-dione L-malate] | more than 15 times | 158 µg/mL |  |  |  |  | 
Nc1ncnc2c1c(-c1ccc(Oc3ccccc3)cc1)nn2C1CCN(C2CN(C3CN(c4ccc5c(c4)C(=O)N(C4CCC(=O)NC4=O)C5=O)C3)C2)CC1.O=C(O)CC(O)(CC(=O)O)C(=O)O (stereo not shown) [Compound 5, 5-[3-[3-[4-[4-amino-3-(4-phenoxyphenyl)pyrazolo[3,4-d]pyrimidin-1-yl]-1-piperidyl]azetidin-1-yl]azetidin-1-yl]-2-(2,6-dioxo-3-piperidyl)isoindoline-1,3-dione citrate] | more than 15 times | 166 µg/mL | Yes | more than 2 times | 59.5 ± 21 ng·h/mL | relatively good chemical stability | Purity by HPLC, 0 day [4]: 98.44%; Purity by HPLC, 92.5% RH 30 days [4]: 98.05%
Nc1ncnc2c1c(-c1ccc(Oc3ccccc3)cc1)nn2C1CCN(C2CN(C3CN(c4ccc5c(c4)C(=O)N(C4CCC(=O)NC4=O)C5=O)C3)C2)CC1.O=C(O)C(O)C(O)C(=O)O [Compound 7, 5-[3-[3-[4-[4-amino-3-(4-phenoxyphenyl)pyrazolo[3,4-d]pyrimidin-1-yl]-1-piperidyl]azetidin-1-yl]azetidin-1-yl]-2-(2,6-dioxo-3-piperidyl)isoindoline-1,3-dione L-tartrate] | more than 15 times | 143 µg/mL | Yes | more than 2 times | 95.5 ± 65 ng·h/mL |  | 
Nc1ncnc2c1c(-c1ccc(Oc3ccccc3)cc1)nn2C1CCN(C2CN(C3CN(c4ccc5c(c4)C(=O)N(C4CCC(=O)NC4=O)C5=O)C3)C2)CC1.O=C(O)C(=O)O (stereo not shown) [Compound 9, 5-[3-[3-[4-[4-amino-3-(4-phenoxyphenyl)pyrazolo[3,4-d]pyrimidin-1-yl]-1-piperidyl]azetidin-1-yl]azetidin-1-yl]-2-(2,6-dioxo-3-piperidyl)isoindoline-1,3-dione oxalate] | more than 15 times | 346 µg/mL | Yes | more than 2 times | 79.4 ± 20 ng·h/mL | relatively good chemical stability | Purity by HPLC, 0 day [4]: 98.67%; Purity by HPLC, 92.5% RH 30 days [4]: 98.28%
Nc1ncnc2c1c(-c1ccc(Oc3ccccc3)cc1)nn2C1CCN(C2CN(C3CN(c4ccc5c(c4)C(=O)N(C4CCC(=O)NC4=O)C5=O)C3)C2)CC1 (stereo not shown) [amorphous form of compound 1, 5-[3-[3-[4-[4-amino-3-(4-phenoxyphenyl)pyrazolo[3,4-d]pyrimidin-1-yl]-1-piperidyl]azetidin-1-yl]azetidin-1-yl]-2-(2,6-dioxo-3-piperidyl)isoindoline-1,3-dione] |  | 9 µg/mL (≈ 12 µM) | Yes |  | 26.9 ± 3.3 ng·h/mL | relatively good chemical stability | stability of crystal form [5]: relatively good stability; Purity by HPLC, 0 day [4, 6]: 98.88%; Purity by HPLC, 92.5% RH 30 days [4, 6]: 98.82%; Purity by HPLC, 40° C. 30 days [4, 6]: 98.85%
Nc1ncnc2c1c(-c1ccc(Oc3ccccc3)cc1)nn2C1CCN(C2CN(C3CN(c4ccc5c(c4)C(=O)N(C4CCC(=O)NC4=O)C5=O)C3)C2)CC1.O=C(O)/C=C\C(=O)O.O=C(O)/C=C\C(=O)O (stereo not shown) [amorphous form of compound 3, 5-[3-[3-[4-[4-amino-3-(4-phenoxyphenyl)pyrazolo[3,4-d]pyrimidin-1-yl]-1-piperidyl]azetidin-1-yl]azetidin-1-yl]-2-(2,6-dioxo-3-piperidyl)isoindoline-1,3-dione dimaleate] |  |  |  |  |  |  | stability of crystal form [5]: relatively good stability
Nc1ncnc2c1c(-c1ccc(Oc3ccccc3)cc1)nn2C1CCN(C2CN(C3CN(c4ccc5c(c4)C(=O)N(C4CCC(=O)NC4=O)C5=O)C3)C2)CC1.O=C(O)/C=C\C(=O)O.O=C(O)/C=C\C(=O)O (stereo not shown) [crystal form I of compound 3, 5-[3-[3-[4-[4-amino-3-(4-phenoxyphenyl)pyrazolo[3,4-d]pyrimidin-1-yl]-1-piperidyl]azetidin-1-yl]azetidin-1-yl]-2-(2,6-dioxo-3-piperidyl)isoindoline-1,3-dione dimaleate] | more than 15 times | 172 µg/mL | Yes | more than 2 times | 75.1 ± 50 ng·h/mL | relatively good chemical stability | Purity by HPLC, 0 day [4]: 99.85%; Purity by HPLC, 92.5% RH 30 days [4]: 99.76%; Purity by HPLC, 40° C. 30 days [4]: 99.74%; relative stability of crystal forms from competition experiments [1]: most stable crystal form
Nc1ncnc2c1c(-c1ccc(Oc3ccccc3)cc1)nn2C1CCN(C2CN(C3CN(c4ccc5c(c4)C(=O)N(C4CCC(=O)NC4=O)C5=O)C3)C2)CC1 (stereo not shown) [crystal form III of compound 1, 5-[3-[3-[4-[4-amino-3-(4-phenoxyphenyl)pyrazolo[3,4-d]pyrimidin-1-yl]-1-piperidyl]azetidin-1-yl]azetidin-1-yl]-2-(2,6-dioxo-3-piperidyl)isoindoline-1,3-dione] |  |  |  |  |  |  | Purity by HPLC, 0 day [4, 7]: 99.41%; Purity by HPLC, 92.5% RH 30 days [4, 7]: 99.30%; Purity by HPLC, 40° C. 30 days [4, 7]: 99.28%; relative stability of crystal forms from competition experiments [1]: most stable crystal form
